PubChem BioAssay AID2060326 (Molecular Pharmacology Branch, DTP, NCI, 2025)

System: MDA-MB-468 multi-cell spheroids, viability
Test: Anticancer human tumor MDA-MB-468 cell line growth inhibition [IpAb];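 also: spheroids exposed to agents for seven days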;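 as to viability, T/C: 100% = DMSO vehicle control viability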
Conditions: for IC50: curve of first compound; for viability, T/C: stronger effect = lower value
Text: Combinatorial screen of targeted agents with ipatasertib and abemaciclib in multi-cell type tumor spheroids
A high-throughput screen of multi-cell type tumor spheroids was designed to identify active combinations of targeted small molecules and ipatasertib or abemaciclib. Complex spheroids include a stromal component modeled by human endothelial cells (HUVEC) and fibroblasts modeled by human mesenchymal stem cells (MSCs). The concentration ranges selected for each drug and investigational agent were based upon clinically achievable concentrations if the clinical Cmax of the agent was known.
Compounds. The drugs and investigational agents: ipatasertib (NSC767898), abemaciclib(NSC768073), selumetinib (NSC741078), trametinib (758246), adavosertib (NSC754352), everolimus (NSC733504), sapanisertib (NSC764658), vemurafenib (NSC761431), venetoclax (NSC766270), copanlisib (NSC809693), apelisib (NSC765974), palbociblib (NSC758247), vemurafenib (NSC761431), dabrafenib (NSC764134), ravoxertinib (NSC781343), BMS-387032 (NSC767048), sotorasib (NSC818433), talazoparib (NSC767125) and afursertib (NSC778305), were obtained from the National Cancer Institute (NCI) Developmental Therapeutics Program Chemical Repository. The FDA-approved anticancer drug set is available from the NCI Developmental Therapeutics Program. […] The stock solutions were prepared in dimethyl sulfoxide (DMSO, Sigma-Aldrich, St. Louis, MO, cat. D2650) at 800-fold the tested concentration and stored at -70 degrees C prior to their use. All drugs and investigational agents were tested over a range starting from a high concentration at or near the clinical Cmax and decreasing in half-log increments. If the clinical Cmax for an agent had not been determined, the highest concentration tested was 10 microM.
NCI60 Cell Culture. NCI60 cell lines were obtained from the NCI Developmental Therapeutics Program Tumor Repository. For each lot of cells, the Repository performed Applied Biosystems AmpFLSTR Identifiler testing with PCR amplification to confirm consistency with the published Identifier STR profile for each cell line. Cells were kept in continuous culture for no more than 20 passages. The optimal seeding densities for each of the cell lines at each time point assessed were determined prior to performing the concentration response studies. Briefly, the NCI60 human tumor lines were grown as monolayers in RPMI 1640 medium supplemented with 10% FBS and 2 mmol/L L-glutamine.
An additional 9 lines were from the NCI60 cell line panel including MDA-MB-231 breast carcinoma, MDA-MB-468 breast carcinoma, MCF7 breast carcinoma, Hs578T breast carcinoma, MALME-3M melanoma, SK-MEL-2 melanoma, SK-OV-3 ovarian carcinoma, DU-145 prostate carcinoma, PC-3 prostate carcinoma, all cell lines along with major genetic alterations are listed on Table 2. Pooled donor human umbilical vein endothelial cells (HUVEC, Lonza, cat. CC-2519) and human mesenchymal stem cells (hMSC, Lonza, cat. PT-2501) were purchased from Lonza (Walkersville, MD).
PDMR cell lines were grown in complete medium (DC medium): Dulbecco's modified Eagle's medium (DMEM)/F12 supplemented with 5% fetal bovine serum (FBS), 2 mM L-glutamine, 100 U/mL penicillin and 100 µg/ml streptomycin, 0.4 µg/ml hydrocortisone, 10 ng/ml epidermal growth factor (EGF) recombinant human protein, 24 µg/mL adenine, and 0.1 mg/mL primocin. During culture from frozen stock vials, PDMR cells were cultured in the same medium containing 10 µM Y-27632 (see Table 3). The PDCs were cultured in complete DMEM/F12 media without 10 microM Y-27632 dihydrochloride for at least two passages prior to the screen. The pooled donor HUVEC and hMSC were cultured in endothelial cell growth medium 2 (PromoCell, Heidelberg, Germany, cat. C-22011) and mesenchymal stem cell growth medium 2 (PromoCell, cat. C-28009), respectively. For all experiments, HUVEC and hMSC were used at passages </=5.
[…]

`CC(C)(C)c1cnc(CSc2cnc(NC(=O)C3CCNCC3)s2)o1` + CC(C)NCC(C(=O)N1CCN(c2ncnc3c2C(C)CC3O)CC1)c1ccc(Cl)cc1 showed an IC50 (second compound 0.1 µM) of 69.1 nM, an IC50 (second compound 0.316 µM) of 45.3 nM and an IC50 (second compound 1 µM) of 36.9 nM. For the same compound, the IC50 (second compound 3.16 µM) was under 9.49 nM, the IC50 (second compound 10 µM) was under 9.49 nM and the viability, T/C (second compound 0.1 µM, first compound 0.00949 µM) was 110%. The viability, T/C (second compound 0.1 µM, first compound 0.03 µM) was 91.4%, the viability, T/C (second compound 0.1 µM, first compound 0.0949 µM) was 35% and the viability, T/C (second compound 0.1 µM, first compound 0.3 µM) was 0.3%. It also gave a viability, T/C (second compound 0.1 µM, first compound 0.949 µM) of 0.19%, a viability, T/C (second compound 0.1 µM, first compound 3 µM) of 0.32% and a viability, T/C (second compound 0.316 µM, first compound 0.00949 µM) of 73.9%. For the same compound, the viability, T/C (second compound 0.316 µM, first compound 0.03 µM) was 67.4%, the viability, T/C (second compound 0.316 µM, first compound 0.0949 µM) was 18.8% and the viability, T/C (second compound 0.316 µM, first compound 0.3 µM) was 0.27%. It also gave a viability, T/C (second compound 0.316 µM, first compound 0.949 µM) of 0.15%, a viability, T/C (second compound 0.316 µM, first compound 3 µM) of 0.27% and a viability, T/C (second compound 1 µM, first compound 0.00949 µM) of 62.2%. It also gave a viability, T/C (second compound 1 µM, first compound 0.03 µM) of 58.7%, a viability, T/C (second compound 1 µM, first compound 0.0949 µM) of 10% and a viability, T/C (second compound 1 µM, first compound 0.3 µM) of 0.2%. The viability, T/C (second compound 1 µM, first compound 0.949 µM) was 0.14%, the viability, T/C (second compound 1 µM, first compound 3 µM) was 0.24% and the viability, T/C (second compound 3.16 µM, first compound 0.00949 µM) was 41.5%. It also gave a viability, T/C (second compound 3.16 µM, first compound 0.03 µM) of 35.4%, a viability, T/C (second compound 3.16 µM, first compound 0.0949 µM) of 11.5% and a viability, T/C (second compound 3.16 µM, first compound 0.3 µM) of 0.23%. It also gave a viability, T/C (second compound 3.16 µM, first compound 0.949 µM) of 0.13%, a viability, T/C (second compound 3.16 µM, first compound 3 µM) of 0.31% and a viability, T/C (second compound 10 µM, first compound 0.00949 µM) of 21.3%. The viability, T/C (second compound 10 µM, first compound 0.03 µM) was 18.1%, the viability, T/C (second compound 10 µM, first compound 0.0949 µM) was 1.19% and the viability, T/C (second compound 10 µM, first compound 0.3 µM) was 0.32%. It also gave a viability, T/C (second compound 10 µM, first compound 0.949 µM) of 0.24% and a viability, T/C (second compound 10 µM, first compound 3 µM) of 0.65%.
With `Cc1nc(NC(=O)N2CCCC2C(N)=O)sc1-c1ccnc(C(C)(C)C(F)(F)F)c1` (stereo not given) + CCN1CCN(Cc2ccc(Nc3ncc(F)c(-c4cc(F)c5nc(C)n(C(C)C)c5c4)n3)nc2)CC1 the IC50 (second compound 0.01 µM) was 7820 nM, the IC50 (second compound 0.0316 µM) was 5280 nM and the IC50 (second compound 0.1 µM) was 4970 nM. It also gave an IC50 (second compound 0.316 µM) of 3890 nM, an IC50 (second compound 1 µM) of 1290 nM and a viability, T/C (second compound 0.01 µM, first compound 0.0316 µM) of 108%. It also gave a viability, T/C (second compound 0.01 µM, first compound 0.1 µM) of 90.6%, a viability, T/C (second compound 0.01 µM, first compound 0.316 µM) of 102% and a viability, T/C (second compound 0.01 µM, first compound 1 µM) of 79.2%. It also gave a viability, T/C (second compound 0.01 µM, first compound 3.16 µM) of 102%, a viability, T/C (second compound 0.01 µM, first compound 10 µM) of 37.4% and a viability, T/C (second compound 0.0316 µM, first compound 0.0316 µM) of 77.8%. It also gave a viability, T/C (second compound 0.0316 µM, first compound 0.1 µM) of 83.4%, a viability, T/C (second compound 0.0316 µM, first compound 0.316 µM) of 68% and a viability, T/C (second compound 0.0316 µM, first compound 1 µM) of 86%. It also gave a viability, T/C (second compound 0.0316 µM, first compound 3.16 µM) of 69%, a viability, T/C (second compound 0.0316 µM, first compound 10 µM) of 24.4% and a viability, T/C (second compound 0.1 µM, first compound 0.0316 µM) of 99.8%. It also gave a viability, T/C (second compound 0.1 µM, first compound 0.1 µM) of 91.9%, a viability, T/C (second compound 0.1 µM, first compound 0.316 µM) of 98.9% and a viability, T/C (second compound 0.1 µM, first compound 1 µM) of 86%. For the same compound, the viability, T/C (second compound 0.1 µM, first compound 3.16 µM) was 67.3%, the viability, T/C (second compound 0.1 µM, first compound 10 µM) was 23.7% and the viability, T/C (second compound 0.316 µM, first compound 0.0316 µM) was 91%. The viability, T/C (second compound 0.316 µM, first compound 0.1 µM) was 89.7%, the viability, T/C (second compound 0.316 µM, first compound 0.316 µM) was 77.7% and the viability, T/C (second compound 0.316 µM, first compound 1 µM) was 79.3%. For the same compound, the viability, T/C (second compound 0.316 µM, first compound 3.16 µM) was 57.2%, the viability, T/C (second compound 0.316 µM, first compound 10 µM) was 16.5% and the viability, T/C (second compound 1 µM, first compound 0.0316 µM) was 57.9%. The viability, T/C (second compound 1 µM, first compound 0.1 µM) was 68.1%, the viability, T/C (second compound 1 µM, first compound 0.316 µM) was 62.9% and the viability, T/C (second compound 1 µM, first compound 1 µM) was 55.1%. It also gave a viability, T/C (second compound 1 µM, first compound 3.16 µM) of 30.6% and a viability, T/C (second compound 1 µM, first compound 10 µM) of 6.3%.
